Test system: panel of cancer cell lines
Experiment: Cell viability (CellTiter-Glo) dose-response across cancer cell line panel;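 note: after 72 h compound incubation with CellTiter-Glo ATP readout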
Assay type: cell-based, human
Settings: Homo sapiens
Excerpt: Next, we explored the effect of CSN5 inhibition on the viability of cancer cells. To obtain a comprehensive picture, we generated dose–response curves with a CSN5 inhibitor across more than 500 cancer cell lines in a previously described standardized setting[47] (Supplementary Data 1).
A standardized CellTiter-Glo Assay (Promega #G7570) based on the quantification of ATP was applied according to the manufacturer's protocol to measure the amount of viable cells in culture. In brief, cells were seeded into 384-well plates at optimal density for each cell line. After 4 h, compounds were added at different concentrations in growth medium and incubated for another 72 h in a humidifying chamber at 37 °C and 5% CO2. […] EC50 values were calculated from the plot of percentage of inhibition versus inhibitor concentration using the nonlinear regression analysis software Origin 7.5SR6 (OriginLab Corp.).

EC50 (HCC-1833 cells): 10.6 µM
EC50 (HCT-15, HCT-15 cells): 6.96 µM
EC50 (HD-MY-Z cells): 3.49 µM
EC50 (HEC-50B, HEC-50B cells): 13 µM
EC50 (HEC-108 cells): 14.7 µM
EC50 (HEC-151 cells): 11.1 µM
EC50 (HEC-265 cells): 14.2 µM
EC50 (HEL 92.1.7, HEL 92.1.7 cells): 7.27 µM
EC50 (HEL, HEL cells): 6.98 µM
EC50 (HEY A8, Hey-A8 cells): 12.9 µM
EC50 (HL-60, HL-60 cells): 15.7 µM
EC50 (HLC-1 cells): 11.5 µM
EC50 (HLE, HLE cells): 15.5 µM
EC50 (HLF, HLF cells): > 30 µM
EC50 (HMC-1-8 cells): 15.3 µM
EC50 (HPBALL, HPB-ALL cells): 14.1 µM
EC50 (HRT-18, HRT-18 cells): 9.14 µM
EC50 (HSC-2, HSC-2 cells): 23.9 µM
EC50 (HSC-3, HSC-3 cells): 12.7 µM
EC50 (HSC-4, HSC-4 cells): 10 µM
EC50 (HT-29, HT-29 cells): 12.4 µM
EC50 (Hep 3B2.1-7 cells): 11.1 µM
EC50 (Hep3B, Hep3B cells): 14.2 µM
EC50 (Hs 294T, Hs 294T cells): 11.7 µM
EC50 (Hs766T, Hs 766T cells): 24.2 µM
EC50 (Hs 852.T cells): 15.4 µM
EC50 (Hs 936.T cells): 17.2 µM
EC50 (Hs 944.T cells): 15.3 µM
EC50 (HuG1-N cells): 10.6 µM
EC50 (HuP-T3, HUP-T3 cells): 23.8 µM
EC50 (HuP-T4, HUP-T4 cells): 11 µM
EC50 (Huh-7, HuH-7 cells): 9.02 µM
EC50 (IGR-37, IGR-37 cells): 17.6 µM
EC50 (IGR-39, IGR-39 cells): 10.6 µM
EC50 (IGROV-1, IGROV1 cells): 12.3 µM
EC50 (IPC-298, IPC-298 cells): 10.3 µM
EC50 (Ishikawa, Ishikawa cells): 9.64 µM
EC50 (J82, J82 cells): > 30 µM
EC50 (JHH7, JHH-7 cells): 16.4 µM
EC50 (JHH-4, JHH-4 cells): 16.2 µM
EC50 (JHOM-1 cells): 8.92 µM
EC50 (JHOS-2 cells): > 30 µM
EC50 (JHUEM-2 cells): 15.3 µM
EC50 (JIMT-1, JIMT-1 cells): 13.1 µM
EC50 (JVM-2, JVM-2 cells): 13 µM
EC50 (K029AX cells): 17 µM
EC50 (KARPAS-422, KARPAS-422 cells): 12.5 µM
EC50 (KATO III, KATO III cells): 9.94 µM
EC50 (KBM-7, KBM-7 cells): 8.38 µM
EC50 (KE-97, KE-97 cells): 7.93 µM
EC50 (KLE, KLE cells): 12.6 µM
EC50 (KMM-1, KMM-1 cells): 10.6 µM
EC50 (KMRC-1, KMRC-1 cells): 17.7 µM
EC50 (KMRC-20 cells): 18.5 µM
EC50 (KMS-11, KMS-11 cells): 28.6 µM
EC50 (KNS-62, KNS-62 cells): 15.4 µM
EC50 (KO52 cells): 18.3 µM
EC50 (KP-1N cells): 15 µM
EC50 (KS-1 cells): 15.6 µM
EC50 (KU-19-19, KU-19-19 cells): 16 µM
EC50 (KURAMOCHI cells): 10.6 µM
EC50 (KYSE-70, KYSE-70 cells): 10.4 µM
EC50 (KYSE-150, KYSE-150 cells): 10.7 µM
EC50 (KYSE-180, KYSE-180 cells): 14.1 µM
EC50 (KYSE-410, KYSE-410 cells): 15 µM
EC50 (Kasumi-3, Kasumi3 cells): 13 µM
EC50 (Kasumi-6 cells): 6.45 µM
EC50 (L3.3 cells): 20.2 µM
EC50 (L-363, L-363 cells): 9.54 µM
EC50 (L-428, L-428 cells): 11.8 µM
EC50 (LC-1F cells): 16.3 µM
EC50 (LCLC-103H, LCLC-103H cells): 8.84 µM
EC50 (LIM1899 cells): 10.3 µM
EC50 (LIM2099 cells): 11.4 µM
EC50 (LIM2405 cells): 9.94 µM
EC50 (LIM2550 cells): 6.3 µM
EC50 (LMSU cells): 7.62 µM
EC50 (LN-18, LN-18 cells): 13 µM
EC50 (LN-229, LN-229 cells): 8.07 µM
EC50 (LOU-NH91, LOU-NH91 cells): 11.2 µM
EC50 (LOX IMVI, LOX IMVI cells): 9.19 µM
EC50 (LP-1, LP-1 cells): 11.9 µM
EC50 (LS180, LS 180 cells): 10.5 µM
EC50 (LS-513, LS513 cells): 8.14 µM
EC50 (LUDLU-1, LUDLU-1 cells): > 30 µM
EC50 (Li-7, Li-7 cells): 23.7 µM
EC50 (Lu-65, LU65 cells): 12.5 µM
EC50 (Lu-99, LU99 cells): 9.78 µM
EC50 (M-07e, M-07e cells): 16 µM
EC50 (MCAS cells): 12.5 µM
EC50 (MCC14/2 cells): 9.96 µM
EC50 (MDA-MB-157, MDA-MB-157 cells): 14.7 µM
EC50 (MDA-MB-175-VII, MDA-MB-175-VII cells): 19.8 µM
EC50 (MDA-MB-231, MDA-MB-231 cells): 15.3 µM
EC50 (MDA-MB-415, MDA-MB-415 cells): 13.4 µM
EC50 (MDA-MB-435S, MDA-MB-435S cells): 12 µM
EC50 (MDA-MB-436, MDA-MB-436 cells): 10.1 µM
EC50 (MDA-MB-453, MDA-MB-453 cells): 6.48 µM
EC50 (MDA-MB-468, MDA-MB-468 cells): 10.7 µM
EC50 (MDST8, MDST8 cells): 11.2 µM
EC50 (ME-180, ME180 cells): 11.9 µM
EC50 (MEL-HO cells): 10.9 µM
EC50 (MEL-JUSO, MEL-JUSO cells): 18.1 µM
EC50 (MES-SA, MES-SA cells): 12.5 µM
EC50 (MFE-280, MFE-280 cells): 10.8 µM
EC50 (MFE-296, MFE-296 cells): 10.5 µM
EC50 (MFM-223, MFM223 cells): 17.2 µM
EC50 (MINO, Mino cells): 7.97 µM
EC50 (MKN-1, MKN1 cells): 9.59 µM
EC50 (MKN-45, MKN-45 cells): 26.8 µM
EC50 (ML-2, ML-2 cells): 6.14 µM
EC50 (MM127 cells): 6.45 µM
EC50 (MM138 cells): 10.4 µM
EC50 (MM253 cells): 26.5 µM
EC50 (MM370 cells): 23 µM
EC50 (MM383 cells): 11.2 µM
EC50 (MM386 cells): 25.5 µM
EC50 (MM415 cells): 13.3 µM
EC50 (MM426 cells): 24.4 µM
EC50 (MM466 cells): 24.5 µM
EC50 (MM473, MM473 cells): 10.4 µM
EC50 (MM485 cells): 11.2 µM
EC50 (MM537 cells): 14 µM
EC50 (MM576 cells): 15.8 µM
EC50 (MM603 cells): 9.82 µM
EC50 (MOG-G-CCM cells): 10.9 µM
EC50 (MOLM-13, MOLM-13 cells): 6.66 µM
EC50 (MOLP-8, MOLP-8 cells): 6.91 µM
EC50 (MOLT-16, MOLT-16 cells): 5.34 µM
SMILES: COCc1ccccc1NCc1ccc([C@@H]2[C@H](O)CCCc3cncn32)c(-c2ccccc2Cl)c1 [CSN5i-2e, (5R,6R)-5-(2′-chloro-5-(((2-(methoxymethyl)phenyl)amino)methyl)-[1,1′-biphenyl]-2-yl)-6,7,8,9-tetrahydro-5H-imidazo[1,5-a]azepin-6-ol]

Source: PMC5078989, “Targeted inhibition of the COP9 signalosome for treatment of cancer” (Nature Communications, 2016)
